What all share (experiment): Glasshouse assay for herbicidal activity (pre- and post-emergence), percentage phytotoxicity
Format in all cases: in vivo

For experiment [1], the system named is Alopecurus myosuroides (ALOMY). To be noted: Alopecurus myosuroides. As to the method: (§1) Test—Glasshouse Assay for Herbicidal Activity
(§2) Seeds of a variety of monocotyledonous and dicotyledonous test plants are sown in standard soil in pots. The plants are cultivated for one day (for pre-emergence (PRE)) or for about 12 days (for post-emergence (POST)) under controlled conditions in a glasshouse (warm climate species at 24/18° C., cool climate species at 20/16° C., both at day/night; 16 hours light; 65% humidity).
(§3) The test plants are then grown on, in a glasshouse (greenhouse) under controlled conditions (warm climate species at 24/18° C., cool climate species at 20/16° C., both at day/night; 16 hours light; 65% humidity) and are watered twice daily. 15 days after application of the test herbicide (15 DAA) (for post-emergence), and 20 days after application of the test herbicide (20 DAA) (for pre-emergence), the test plants are evaluated visually, and an assessed percentage phytotoxicity score is given for each herbicidal application on each plant species (with 100%=total damage to plant; 0%=no damage to plant).
(§4) The plant species tested are as follows: Alopecurus myosuroides (ALOMY), Avena fatua (AVEFA), Lolium perenne (LOLPE), Echinochloa crus-galli (ECHCG).

The subject of a further experiment is Avena fatua (AVEFA). To be noted: Avena fatua. The method, then: as §1, §2, §3, §4
In experiment [2] the test system is Echinochloa crus-galli (ECHCG). The settings on record: Echinochloa crus-galli. As to the method: as §1, §2, §3, §4
In a further experiment the test system is Lolium perenne (LOLPE). To be noted: Lolium perenne. As to the method: as §1, §2, §3, §4
The mark [3] stands for this setting: post-emergence, 360 h, 250 g/ha, post-emergence, 15 DAA, visual assessment (100%=total damage, 0%=no damage), read-out: Post-emergence herbicidal activity (percentage phytotoxicity) ALOMY POST.
[4] abbreviates: pre-emergence, 480 h, 250 g/ha, pre-emergence, 20 DAA, visual assessment (100%=total damage, 0%=no damage), read-out: Pre-emergence herbicidal activity (percentage phytotoxicity) ALOMY PRE.
The mark [5] stands for this setting: post-emergence, 360 h, 250 g/ha, post-emergence, 15 DAA, visual assessment (100%=total damage, 0%=no damage), read-out: Post-emergence herbicidal activity (percentage phytotoxicity) AVEFA POST.
[6] abbreviates: pre-emergence, 480 h, 250 g/ha, pre-emergence, 20 DAA, visual assessment (100%=total damage, 0%=no damage), read-out: Pre-emergence herbicidal activity (percentage phytotoxicity) AVEFA PRE.
The mark [7] stands for this setting: post-emergence, 360 h, 250 g/ha, post-emergence, 15 DAA, visual assessment (100%=total damage, 0%=no damage), read-out: Post-emergence herbicidal activity (percentage phytotoxicity) ECHCG POST.
The mark [8] stands for this setting: pre-emergence, 480 h, 250 g/ha, pre-emergence, 20 DAA, visual assessment (100%=total damage, 0%=no damage), read-out: Pre-emergence herbicidal activity (percentage phytotoxicity) ECHCG PRE.
[9] abbreviates: post-emergence, 360 h, 250 g/ha, post-emergence, 15 DAA, visual assessment (100%=total damage, 0%=no damage), read-out: Post-emergence herbicidal activity (percentage phytotoxicity) LOLPE POST.
The mark [10] stands for this setting: pre-emergence, 480 h, 250 g/ha, pre-emergence, 20 DAA, visual assessment (100%=total damage, 0%=no damage), read-out: Pre-emergence herbicidal activity (percentage phytotoxicity) LOLPE PRE.
Where [11] appears, read: pre-emergence, 480 h, Rate 250 g/ha, pre-emergence, assessed visually 20 DAA, 100%=total damage, 0%=no damage, read-out: Pre-emergence herbicidal activity (percentage phytotoxicity) ALOMY PRE.
[12] abbreviates: pre-emergence, 480 h, Rate 250 g/ha, pre-emergence, assessed visually 20 DAA, 100%=total damage, 0%=no damage, read-out: Pre-emergence herbicidal activity (percentage phytotoxicity) AVEFA PRE.
Setting [13] is: post-emergence, 360 h, Rate 250 g/ha, post-emergence, assessed visually 15 DAA, 100%=total damage, 0%=no damage, read-out: Post-emergence herbicidal activity (percentage phytotoxicity) ECHCG POST.
Where [14] appears, read: pre-emergence, 480 h, Rate 250 g/ha, pre-emergence, assessed visually 20 DAA, 100%=total damage, 0%=no damage, read-out: Pre-emergence herbicidal activity (percentage phytotoxicity) ECHCG PRE.
Where [15] appears, read: post-emergence, 360 h, Rate 250 g/ha, post-emergence, assessed visually 15 DAA, 100%=total damage, 0%=no damage, read-out: Post-emergence herbicidal activity (percentage phytotoxicity) LOLPE POST.
Where [16] appears, read: pre-emergence, 480 h, Rate 250 g/ha, pre-emergence, assessed visually 20 DAA, 100%=total damage, 0%=no damage, read-out: Pre-emergence herbicidal activity (percentage phytotoxicity) LOLPE PRE.
Where [17] appears, read: post-emergence, 360 h, Rate 250 g/ha, post-emergence, assessed visually 15 DAA, 100%=total damage, 0%=no damage, read-out: Post-emergence herbicidal activity (percentage phytotoxicity) ALOMY POST.
The mark [18] stands for this setting: post-emergence, 360 h, Rate 250 g/ha, post-emergence, assessed visually 15 DAA, 100%=total damage, 0%=no damage, read-out: Post-emergence herbicidal activity (percentage phytotoxicity) AVEFA POST.

Read-outs that look alike come from different tables or passages of the source.

For `COc1ccc(CNC(=O)CC2CC(=O)C(c3c(C)cc(C)cc3C)C2=O)cc1` (stereo not drawn) [Compound B18], the pest or weed control at 250 g/ha in experiment [1] (setting [3]) was found to be 80%; in experiment [1] (setting [4]), 70%; in the experiment on Avena fatua (AVEFA) (setting [5]) it was 90%; in the experiment with Avena fatua (AVEFA) (setting [6]), 80%; in experiment [2] (setting [7]), 90%; in experiment [2] (setting [8]), 90%. Moreover, the pest or weed control at 250 g/ha in the experiment with Lolium perenne (LOLPE) (setting [9]) and with Lolium perenne (LOLPE) (setting [10]) was 100% each time.
`C#CC(C)(COC)NC(=O)CC1CC(=O)C(c2c(C)cc(C)cc2C)C1=O` (stereo not drawn) [Compound B55]: the pest or weed control at 250 g/ha in experiment [1] (setting [3]) was 80%; in experiment [1] (setting [4]) it was 80%; in the experiment with Avena fatua (AVEFA) (setting [5]), 60%; in the experiment on Avena fatua (AVEFA) (setting [6]), 30%; in experiment [2] (setting [7]), 60%; in experiment [2] (setting [8]) it was 50%. Moreover, the pest or weed control at 250 g/ha in the experiment with Lolium perenne (LOLPE) (setting [9]) and in the experiment with Lolium perenne (LOLPE) (setting [10]) was 70% each time.
Consider `Cc1cc(-c2cncnc2)cc(C)c1C1C(=O)CC(CC(=O)NCc2ncccc2Cl)C1=O` (stereo not drawn) [Compound A143], for which the pest or weed control at 250 g/ha in experiment [1] (setting [11]) came out at 0%; with Avena fatua (AVEFA) (setting [12]), 0%; in experiment [2] (setting [13]), 40%; in experiment [2] (setting [14]), 10%; in the experiment on Lolium perenne (LOLPE) (setting [15]) it was 20%; in the experiment on Lolium perenne (LOLPE) (setting [16]) it was 10%.
As to `Cc1cc(-c2ccc(Cl)cn2)cc(C)c1C1C(=O)CC(CC(=O)NC/C=C/Cl)C1=O` (stereo not drawn) [Compound B372], the pest or weed control at 250 g/ha was found to be 90% in experiment [1] (post-emergence, 360 h, Rate 250 g/ha, post-emergence, visual assessment 15 DAA, 100%=total damage, 0%=no damage, read-out: Post-emergence herbicidal activity (percentage phytotoxicity) ALOMY POST); 90% in experiment [1] (pre-emergence, 480 h, Rate 250 g/ha, pre-emergence, visual assessment 20 DAA, 100%=total damage, 0%=no damage, read-out: Pre-emergence herbicidal activity (percentage phytotoxicity) ALOMY PRE); 100% with Avena fatua (AVEFA) (post-emergence, 360 h, Rate 250 g/ha, post-emergence, visual assessment 15 DAA, 100%=total damage, 0%=no damage, read-out: Post-emergence herbicidal activity (percentage phytotoxicity) AVEFA POST); 100% with Avena fatua (AVEFA) (pre-emergence, 480 h, Rate 250 g/ha, pre-emergence, visual assessment 20 DAA, 100%=total damage, 0%=no damage, read-out: Pre-emergence herbicidal activity (percentage phytotoxicity) AVEFA PRE); 100% in experiment [2] (post-emergence, 360 h, Rate 250 g/ha, post-emergence, visual assessment 15 DAA, 100%=total damage, 0%=no damage, read-out: Post-emergence herbicidal activity (percentage phytotoxicity) ECHCG POST); 100% in experiment [2] (pre-emergence, 480 h, Rate 250 g/ha, pre-emergence, visual assessment 20 DAA, 100%=total damage, 0%=no damage, read-out: Pre-emergence herbicidal activity (percentage phytotoxicity) ECHCG PRE). For the same compound, the pest or weed control at 250 g/ha in the experiment on Lolium perenne (LOLPE) (post-emergence, 360 h, Rate 250 g/ha, post-emergence, visual assessment 15 DAA, 100%=total damage, 0%=no damage, read-out: Post-emergence herbicidal activity (percentage phytotoxicity) LOLPE POST) amounted to 90%; with Lolium perenne (LOLPE) (pre-emergence, 480 h, Rate 250 g/ha, pre-emergence, visual assessment 20 DAA, 100%=total damage, 0%=no damage, read-out: Pre-emergence herbicidal activity (percentage phytotoxicity) LOLPE PRE), 100%.
For the compound `Cc1ccsc1CNC(=O)CC1CC(=O)C(c2c(C)cc(-c3ncc(Cl)cc3F)cc2C)C1=O` (stereo not drawn) [Compound A131], the pest or weed control at 250 g/ha in experiment [1] (setting [17]) was 90%; in experiment [1] (setting [11]), 40%; in the experiment on Avena fatua (AVEFA) (setting [18]), 100%; with Avena fatua (AVEFA) (setting [12]), 50%; in experiment [2] (setting [13]) it was 100%; in experiment [2] (setting [14]) it was 100%. In addition, the pest or weed control at 250 g/ha in the experiment on Lolium perenne (LOLPE) (setting [15]) worked out at 100%; in the experiment with Lolium perenne (LOLPE) (setting [16]), 70%.
`Cc1cnc(CNC(=O)CC2CC(=O)C(c3c(C)cc(-c4cncnc4)cc3C)C2=O)cn1` (stereo not drawn) [Compound A147]: the pest or weed control at 250 g/ha stood at 20% in experiment [1] (setting [17]), 20% in the experiment with Avena fatua (AVEFA) (setting [18]), 60% in experiment [2] (setting [13]) and 0% in the experiment with Lolium perenne (LOLPE) (setting [15]).
`Cc1cc(-n2cc(Cl)cn2)cc(C)c1C1C(=O)CC(CC(=O)NC(C)C)C1=O` (stereo not drawn) [Compound A74]: the pest or weed control at 250 g/ha in experiment [1] (setting [17]) was 100%; in experiment [1] (setting [11]), 100%; in the experiment with Avena fatua (AVEFA) (setting [18]), 100%; in the experiment with Avena fatua (AVEFA) (setting [12]), 90%; in experiment [2] (setting [13]), 100%; in experiment [2] (setting [14]) it was 100%. In addition, the pest or weed control at 250 g/ha with Lolium perenne (LOLPE) (setting [15]) and in the experiment with Lolium perenne (LOLPE) (setting [16]) was 90% throughout.
As for `Cc1cc(OCC(F)(F)F)cc(C)c1C1C(=O)CC(CC(=O)N(C)C(C)(C)C)C1=O` (stereo not drawn) [Compound B212], the pest or weed control at 250 g/ha in experiment [1] (post-emergence, 360 h, POST-emergence, rate 250 g/ha, visual score 15 DAA (100%=total damage, 0%=no damage), read-out: Post-emergence herbicidal activity (percentage phytotoxicity) ALOMY POST) was determined as 90%; in experiment [1] (pre-emergence, 480 h, PRE-emergence, rate 250 g/ha, visual score 20 DAA (100%=total damage, 0%=no damage), read-out: Pre-emergence herbicidal activity (percentage phytotoxicity) ALOMY PRE), 60%; in the experiment on Avena fatua (AVEFA) (post-emergence, 360 h, POST-emergence, rate 250 g/ha, visual score 15 DAA (100%=total damage, 0%=no damage), read-out: Post-emergence herbicidal activity (percentage phytotoxicity) AVEFA POST) it was 60%; with Avena fatua (AVEFA) (pre-emergence, 480 h, PRE-emergence, rate 250 g/ha, visual score 20 DAA (100%=total damage, 0%=no damage), read-out: Pre-emergence herbicidal activity (percentage phytotoxicity) AVEFA PRE), 60%; in experiment [2] (post-emergence, 360 h, POST-emergence, rate 250 g/ha, visual score 15 DAA (100%=total damage, 0%=no damage), read-out: Post-emergence herbicidal activity (percentage phytotoxicity) ECHCG POST) it was 90%; in experiment [2] (pre-emergence, 480 h, PRE-emergence, rate 250 g/ha, visual score 20 DAA (100%=total damage, 0%=no damage), read-out: Pre-emergence herbicidal activity (percentage phytotoxicity) ECHCG PRE), 100%. The pest or weed control at 250 g/ha in the experiment with Lolium perenne (LOLPE) (post-emergence, 360 h, POST-emergence, rate 250 g/ha, visual score 15 DAA (100%=total damage, 0%=no damage), read-out: Post-emergence herbicidal activity (percentage phytotoxicity) LOLPE POST) is 70%; in the experiment on Lolium perenne (LOLPE) (pre-emergence, 480 h, PRE-emergence, rate 250 g/ha, visual score 20 DAA (100%=total damage, 0%=no damage), read-out: Pre-emergence herbicidal activity (percentage phytotoxicity) LOLPE PRE), 90%.
For the compound `CC#Cc1cc(C)c(C2C(=O)CC(CC(=O)NC(C)C)C2=O)c(C)c1` (stereo not drawn) [Compound A8, 2-[3-(2,6-dimethyl-4-prop-1-ynyl-phenyl)-2,4-dioxo-cyclopentyl]-N-isopropyl-acetamide], the pest or weed control at 250 g/ha (in experiment [1] (setting [17]); in experiment [1] (setting [11]); in the experiment on Avena fatua (AVEFA) (setting [18]); with Avena fatua (AVEFA) (setting [12]); in experiment [2] (setting [13]); in experiment [2] (setting [14])) was 100% throughout. In addition, the pest or weed control at 250 g/ha in the experiment with Lolium perenne (LOLPE) (setting [15]) and in the experiment on Lolium perenne (LOLPE) (setting [16]) was 100% each time.

The values are drawn from patent publication US10206394B2, “Herbicidal compounds” (Syngenta Participations AG, priority 2014, dated 2019).
